# From patent US20240009161A1, “[…] MATERIAL WITH LOW pH AND LOW TOXICITY ACTIVE AGAINST AT LEAST ONE PATHOGEN FOR ADDRESSING PATIENTS WITH RESPIRATORY […]” (priority 2020, published 2024)
# Where “and” joins values, the source holds several entries; their conditions need not be identical. Equal values may be shown once. Read-outs that look alike come from different tables or passages of the source.
# Key:
# [1] = system: Staphylococcus aureus ATCC (MRSA) 33591; experiment: ASTM E2315 suspension test, 1 minute; type: cell-based; details: pH 3.1, one minute
# Procedure: (§1) In order to assess the antimicrobial efficacy of various acid compounds and combinations, a variety of potential pharmaceutically acceptable fluid formulations within the scope of the present disclosure were evaluated to determine antimicrobial efficacy against common viral, bacterial, and fungal pathogens. These studies were all performed by an ISO 17025 Accredited and GLP Compliant Laboratory. These in vitro tests followed ASTM (American Society of Testing and Materials) standard suspension tests for antimicrobial efficacy. The tests were all performed with a 1-minute contact time based on the pharmacokinetics previously described.
# (§2) Purpose: The first set of in vitro efficacy tests were performed on antibiotic resistant Staphylococcus aureus and Pseudomonas aeruginosa bacteria. These two antibiotic resistant bacterial strains were initially selected since these pathogens represent two broad classes of bacteria. S. aureus is gram-positive and P. aeruginosa is gram-negative. Antibiotic resistant strains of each pathogen are considered some of the deadliest respiratory bacterial strains with limited therapeutic options.
# (§3) The as-received pH measurements were of the test materials as received by the test laboratory. The ASTM antimicrobial test procedures mix 9 parts test material with 1 part medium containing the pathogen. The as-applied pH is the pH after mixing, which is what is seen by the pathogen. After the test duration, 1 minute for these tests, the test material is neutralized, and the pathogens are counted and compared with the control.
# [2] = system: Pseudomonas aeruginosa ATCC BAA-2801; experiment: ASTM E2315 suspension test, 1 minute; type: cell-based
# Procedure: as §1, §2, §3
# [3] = system: Streptococcus pneumoniae ATCC 6303; experiment: ASTM E2315 suspension test, 1 minute; type: cell-based
# Procedure: as §1
# Purpose: Streptococcus pneumoniae is a leading cause of bacterial pneumonia, meningitis, and sepsis, and is estimated to have caused approximately 335,000 (240,000-460,000) deaths in children aged <5 years in 2015 globally. Due to the prevalence and mortality of S. pneumoniae a wide range of acid formulations were tested against this common pathogen to determine what variables may affect efficacy. The purpose of the tests performed was to determine what pH is required to achieve 1 log (90%) efficacy in 1 minute against S. pneumoniae using various acid formulations.
# [4] = system: Rhizopus microspores ATCC 52807; experiment: ASTM E2315 suspension test, 1 minute; type: cell-based; details: 1.9 pH
# [5] = system: Human Coronavirus, 229E strain, ATCC VR-740; experiment: ASTM E1052 virus suspension test, 1 minute; type: cell-based
# Procedure: A 1-minute suspension test is considered to be the most representative in vitro test to simulate in vivo efficacy based on previously discussed pharmacokinetics. A 1 log or 90% efficacy target has been chosen with consideration of patient recovery, while minimizing the effective concentration and potential patient risk. In one contemplated method of administration as described in the present disclosure, the material is administered to the patient in need thereof by inhalation by nebulizer. It is contemplated that patients using an inhalation method such as nebulizer administration would be inhaling the therapeutic material comprising a pharmaceutically acceptable fluid as disclosed herein continuously for several minutes in a specific concentration either continuously or in a series of discrete dose intervals with potentially multiple times per day potentially over multiple days. As a result, any reduction in pathogen load in vitro may be compounded in vivo to achieve higher efficacy over the treatment period.
# as §1
# Purpose: COVID-19 is a global pandemic caused by the SARS-CoV-2 coronavirus. The purpose of these studies was to determine the efficacy of several inorganic acids against the human coronavirus and ascertain the pH required to achieve 1 log efficacy in 1 minute.
# SARS-CoV-2 is a beta coronavirus. An alpha coronavirus was used in these studies since this was the closest virus available at the test laboratory. The alpha coronavirus is considered to be representative for efficacy on SARS-CoV-2 for purposes of this investigation.
# Due to the larger increase in pH, none of the acids achieved the 1 log efficacy goal.
# The EMEM includes live MRC-5 cells which have significant buffer capacity.
# Rhinovirus 37 = experiment: ASTM E1052 virus suspension test, 1 minute; type: cell-based; details: 1.66 and 1.90 pH
# [6] = system: Mycobacterium terrae ATCC 15755; type: cell-based
# L929 mouse cell line = details: for Cytotoxicity Grade: mouse
# [7] = system: Haemophilus influenza ATCC 8149; experiment: ASTM E2315 suspension test, 1 minute; type: cell-based; details: 1.99 pH
# Procedure: as §1
# Three other bacteria and three fungi were selected that represent a wide variety of respiratory pathogens.
# [8] = system: Influenza A (H1N1) A/PR/8/34 Strain; type: cell-based, Influenza A virus
# [9] = system: Aspergillus fumigatus ATCC 36607; experiment: ASTM E2315 suspension test, 1 minute; type: cell-based; details: 1.9 pH
# [10] = system: Klebsiella pneumoniae ATCC 4532; experiment: ASTM E2315 suspension test, 1 minute; type: cell-based; details: 1.99 pH
# SARS-CoV-2 virus = details: hard surfaces, 1 minute, 4% concentration, 2.68 pH; cited from earlier work
molecule,measurement,setting,value
Albuterol sulfate [reference compound],Efficacy as 1 log decrease in pathogen count,[1],no efficacy
same,Effectiveness vs 1 log target,[2]; 3.1 pH,no efficacy
"Cl [hydrochloric acid, Hydrochloric acid]",Effective pH to meet the 1 log efficacy target,[3],approximately 1.87 pH
same,Efficacy,[3]; 1.98 pH,no little efficacy
"Br [hydrobromic acid, Hydrobromic acid]",Effective pH to meet the 1 log efficacy target,[3],1.90 pH
"O=S(=O)(O)O [sulfuric acid, Sulfuric acid]",Effectiveness,[4],effective
same,Efficacy %,[5],82.11%
same,Efficacy at inactivating human coronavirus,[5],provides efficacy at inactivating and/or reducing concentration of human coronavirus
same,Efficacy log,[5],0.75 log
same,In vitro efficacy on human coronavirus,[5],demonstrated in vitro efficacy on human coronavirus
same,"In vitro suspension efficacy, %",[5],82.11%
same,"In vitro suspension efficacy, log",[5],0.75 log
same,Log efficacy,Rhinovirus 37,> 2 log
same,Efficacy %,[6],25% and 24.56%
same,Efficacy log,[6],0.12 log
same,Test Results,L929 mouse cell line,No biological reactivity
same,Cytotoxicity Grade,L929 mouse cell line; 0.12 %,Grade 0
same,Cytotoxicity Grade,L929 mouse cell line; 0.18 %,Grade 0
same,Cytotoxicity Grade,L929 mouse cell line; 0.3 %,Grade 0
same,Cytotoxicity Grade,L929 mouse cell line; […],Grade 0
same,Effectiveness,[7],highly effective
same,Log efficacy,[8],> 4 log
same,Effectiveness,[9],effective
same,Effective pH to meet the 1 log efficacy target,[3],1.91 pH
same,Effectiveness,[3]; 1.9 pH,effective
same,Effectiveness,"[2]; 1.9 pH, antibiotic resistant strain",effective
same,Effectiveness,[10],highly effective
"CC(=O)O [acetic acid, Acetic acid]",Log efficacy,SARS-CoV-2 virus,4 log
Polyphosphoric acid,Effective pH to meet the 1 log efficacy target,[3],approximately 1.85 pH
